Test results: US7148246B2, “Cycloalkyl derivatives having bioisosteric carboxylic acid groups, processes for their preparation and their use as pharmaceuticals” (Sanofi-Aventis Deutschland GmbH, priority 2003, dated 2006)

What follows are compounds tested against T1, human PPARalpha (Homo sapiens, UniProt Q07869) (assay: Cellular PPARalpha assay (stably transfected HEK luciferase reporter cell line)). Conditions: PPARalpha reporter cell line (HEK, GR-GAL4-humanPPARalpha-LBD), luciferase readout.
T1 construct: amino acids S167–Y468; expressed in transfected cells; host or cells: HEK (human embryo kidney) cells, stably transfected with pcDNA3 carrying the fusion construct
T1 sequence (Q07869 167-468): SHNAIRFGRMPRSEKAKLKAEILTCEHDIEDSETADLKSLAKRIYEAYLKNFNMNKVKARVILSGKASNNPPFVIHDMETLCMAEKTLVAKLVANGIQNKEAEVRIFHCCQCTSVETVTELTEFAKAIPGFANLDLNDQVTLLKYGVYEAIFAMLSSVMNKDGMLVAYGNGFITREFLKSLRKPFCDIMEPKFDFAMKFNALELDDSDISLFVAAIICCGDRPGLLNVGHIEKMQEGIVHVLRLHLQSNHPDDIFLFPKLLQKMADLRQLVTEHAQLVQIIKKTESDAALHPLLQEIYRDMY
Type: cell-based
Description: Determination of EC50 Values of PPAR Agonists in the Cellular PPARalpha Assay
The potency of substances which bind to human PPARalpha and activate in an agonistic manner is analyzed using a stably transfected HEK cell line (HEK=human embryo kidney) which is referred to here as PPARalpha reporter cell line. It contains two genetic elements, a luciferase reporter element (pdeltaM-GAL4-Luc-Zeo) and a PPARalpha fusion protein (GR-GAL4-humanPPARalpha-LBD) which mediates expression of the luciferase reporter element depending on a PPARalpha ligand. The stably and constitutively expressed fusion protein GR-GAL4-humanPPARalpha-LBD binds in the cell nucleus of the PPARalpha reporter cell line via the GAL4 protein portion to the GAL4 DNA binding motifs 5′-upstream of the luciferase reporter element which is integrated in the genome of the cell line. There is only little expression of the luciferase reporter gene without addition of a PPARalpha ligand if fatty acid-depleted fetal calf serum (cs-FCS) is used in the assay. PPARalpha ligands bind and activate the PPARalpha fusion protein and thereby bring about expression of the luciferase reporter gene. The luciferase which is formed can be detected by means of chemiluminescence via an appropriate substrate.
The PPARalpha reporter cell line was prepared in 2 stages. Firstly, the luciferase reporter element was constructed and stably transfected into HEK cells. For this purpose, five binding sites of the yeast transcription factor GAL4 (each 5′-CGGAGTACTGTCCTCCGAG-3′) (SEQ ID No.1) were cloned in 5′-upstream of a 68 bp-long minimal MMTV promoter (Genbank Accession #V01175). The minimal MMTV promoter section contains a […] and a TATA element in order to enable efficient transcription by RNA polymerase II. The cloning and sequencing of the GAL4-MMTV construct took place in analogy to the description of Sambrook J. et. al. (Molecular cloning, Cold Spring Harbor Laboratory Press, 1989). Then the complete Photinus pyralis gene (Genbank Accession #M15077) was cloned in 3′-downstream of the GAL4-MMTV element. After sequencing, the luceriferase reporter element consisting of five GAL4 binding sites, MMTV promoter and luciferase gene was recloned into a plasmid which confers zeocin resistance in order to obtain the plasmid pdeltaM-GAL4-Luc-Zeo. This vector was transfected into HEK cells in accordance with the statements in Ausubel, F. M. et al. (Current protocols in molecular biology, Vol. 1–3, John Wiley & Sons, Inc., 1995). […] In a second step, the PPARalpha fusion protein (GR-GAL4-humanPPARalpha-LBD was introduced into the stable cell clone described. For this purpose, initially the cDNA coding for the N-terminal 76 amino acids of the glucocorticoid receptor (Genbank Accession #P04150) was linked to the cDNA section coding for amino acids 1–147 of the yeast transcription factor GAL4 (Genbank Accession #P04386). The cDNA of the ligand-binding domain of the human PPARalpha receptor (amino acids S167–Y468; Genbank Accession #S74349) was cloned in at the 3′-end of this GR-GAL4 construct. The fusion construct prepared in this way (GR-GAL4-humanPPARalpha-LBD) was recloned into the plasmid pcDNA3 (from Invitrogen) in order to enable constitutive expression therein by the cytomegalovirus promoter. This plasmid was linearized with a restriction endonuclease and stably transfected into the previously described cell clone containing the luciferase reporter element. The finished PPARalpha reporter cell line which contains a luciferase reporter element and constitutively expresses the PPARalpha fusion protein (GR-GAL4-human PPARalpha-LBD) was isolated by selection with zeocin (0.5 mg/ml) and G418 (0.5 mg/ml).
The activity of PPARalpha agonists is determined in a 3-day assay which is described below: […]

Row | EC50 [nM] | SMILES
1 | 709 | Cc1oc(-c2ccc(F)cc2)nc1CO[C@@H]1CCC[C@H](OCCC2SC(=O)NC2=O)C1 (relative stereo) [Example XXVI, 5-(2-{cis-3-[2-(4-Fluorophenyl)-5-methyloxazol-4-ylmethoxy]cyclohexyloxy}-ethyl)thiazolidine-2,4-dione]
2 | 114 | Cc1ccc(-c2nc(CO[C@@H]3CCC[C@H](/C=C4/SC(=O)NC4=O)C3)c(C)o2)cc1 (racemic) [Example XXXIV, 5-[1-[cis-3-(5-Methyl-2-tolyloxazol-4-ylmethoxy)cyclohexyl]methylidene]-thiazolidine-2,4-dione]
3 | 227 | Cc1oc(-c2ccc(F)cc2)nc1COC1CCCC(OC/C=C2\NC(=O)NC2=O)C1 (racemic) [XXIV, 5-[2-{cis-3-[2-(4-Fluorophenyl)-5-methyloxazol-4-ylmethoxy]cyclohexyloxy}-ethylidene]imidazolidine-2,4-dione]
4 | 1250 | COc1ccc(S(=O)(=O)O[C@H]2CCC[C@@H](OCc3nc(-c4ccc(F)cc4)oc3C)C2)c([N+](=O)[O-])c1 (relative stereo) [Example XXI, cis-3-[2-(4-fluorophenyl)-5-methyloxazol-4-ylmethoxy]cyclohexyl 4-methoxy-2-nitrobenzenesulfonate]
5 | 1930 | Cc1oc(-c2ccc(F)cc2)nc1CO[C@@H]1CCC[C@H](OS(=O)(=O)c2cc([N+](=O)[O-])ccc2Cl)C1 (relative stereo) [Example XX, cis-3-[2-(4-fluorophenyl)-5-methyloxazol-4-ylmethoxy]cyclohexyl 2-chloro-5-nitrobenzenesulfonate]
6 | 726 | Cc1cccc(-c2nc(COC3CCCC(OCCC4SC(=O)NC4=O)C3)c(C)o2)c1 (stereo not drawn) [Example XXVII, 5-{2-[(cis-3-(5-Methyl-2-tolyloxazol-4-ylmethoxy)cyclohexyloxy]ethyl}thiazolidine-2,4-dione]
7 | 187 | Cc1ccc(-c2nc(COC3CCCC(CC4SC(=O)NC4=O)C3)c(C)o2)cc1 (stereo not drawn) [XXXV, 5-[cis-3-(5-Methyl-2-tolyloxazol-4-ylmethoxy)cyclohexylmethyl]thiazolidine-2,4-dione]
8 | 91 | Cc1oc(-c2ccc(F)cc2)nc1CO[C@H]1CCC[C@@H](OCc2cccc([N+](=O)[O-])c2)C1 (relative stereo) [VIII, 2-(4-Fluorophenyl)-5-methyl4-[cis-3-(3-nitrobenzyloxy)cyclohexyloxy-methyl]oxazole]
